Key:
[1] = system: E. multilocularis germinal layer cells; assay: CellTiter-Glo viability assay on germinal layer cell cultures; type: cell-based; details: Echinococcus multilocularis, 120 h, 5 days, read-out: E.m. GL cells (IC50)
Experimental: To assess the effects of MMV665807 on the viability of parasite cells, germinal layer cells were extracted according to Spiliotis et al. After overnight aggregate formation, 15 units of cells were distributed to a black 384 well plate (Nunc, Thermo Scientific, Reinach, Switzerland) in 12.5 μL medium. A concentration series (final concentrations of 3, 1, 0.3, 0.1, 0.03, 0.01 μM) of MMV665807, MMV665794 and mefloquine were prepared in medium and added 1:2 to the cells. For mefloquine, the concentration range was adjusted in a subsequent setup up to 100 μM. As negative control, DMSO was added accordingly. After 5 days of culture at 37°C under humid nitrogen atmosphere, 25 μL CellTiter-Glo (Promega, Dübendorf, Switzerland) including 1% TritonX-100 was added. Plates were incubated for 15 minutes on a shaker at room temperature and complete disruption of all cell aggregates was checked for before measurement of luminescence on a 2300 Enspire multilabel reader (Perkin-Elmer). Mean values and standard deviations were calculated and DMSO values set to 100% viability. The IC50 value was calculated in Microsoft Excel 2010 after logit-log transformation and averages as well as standard deviations of four independent setups were calculated.

[2] = system: E. multilocularis metacestodes; details: PGI assay; cited from earlier work
[3] = system: E. multilocularis metacestode vesicles; assay: microbe, parasite or virus in culture; details: Echinococcus multilocularis, 288 h, read-out: mean viability

Q: Which IC50 [1] does the source give for `OC(c1cc(C(F)(F)F)nc2c(C(F)(F)F)cccc12)C1CCCCN1` (stereo not shown) [Mefloquine, mefloquine, reference compound] here?
A: 13.8 ± 0.33 µM

Q: What about the EC50 [2] of the same molecule?
A: > 30 µM

Q: What about the viability at 0.1 µM [3] of the same molecule?
A: 59.7%

Q: What about the viability at 0.2 µM [3] of the same molecule?
A: 74.3%

Q: What about the viability at 0.4 µM [3] of the same molecule?
A: 67.9%

Q: And the viability at 0.8 µM [3]?
A: 70.9%

Q: What about the viability at 1.6 µM [3] of the same molecule?
A: 75%

Q: And the viability at 3.1 µM [3]?
A: 63.5%

Q: What about the viability at 6.3 µM [3] of the same molecule?
A: 65.8%

Q: What about the viability at 12.5 µM [3] of the same molecule?
A: 79.4%

Q: And the viability at 25 µM [3]?
A: 83.1%

Q: What about the viability at 50 µM [3] of the same molecule?
A: 5.25%

Q: And the viability at 100 µM [3]?
A: 8.49%

— PMC4788259 (PLoS Neglected Tropical Diseases, 2016)
